Test results as given in ChEMBL document CHEMBL2434963, “Synthesis and cytotoxic activity of some novel steroidal C-17 pyrazolinyl derivatives” (Eur J Med Chem, 2013).
Values after ≈ are worked out from the molar mass of the structure shown.

Assays:
Artemia salina = assay: Toxicity in Artemia salina larvae after 24 hrs by microscopic analysis; assay type: functional
HeLa [1] = assay: cells; details: Homo sapiens, 48 h
Description: Cytotoxicity against human HeLa cells after 48 hrs by MTT assay

HepG2 = assay: Cytotoxicity against human HepG2 cells after 48 hrs by MTT assay; assay type: functional, cell-based; details: HepG2, 48 h
NCI-H460 = assay: Cytotoxicity against human NCI-H460 cells after 48 hrs by MTT assay; assay type: functional, cell-based; details: NCI-H460, 48 h
HeLa [2] = assay: Cell cycle arrest in human HeLa cells assessed as accumulation at G2/M phase at 40 ug/ml after 24 hrs by propidium iodide staining-based flow cytometry (reference value: 11.7%); assay type: functional
HeLa [3] = assay: Cell cycle arrest in human HeLa cells assessed as accumulation at G2/M phase at 20 ug/ml after 24 hrs by propidium iodide staining-based flow cytometry (reference value: 11.7%); assay type: functional
HeLa [4] = assay: Cell cycle arrest in human HeLa cells assessed as accumulation at G2/M phase at 10 ug/ml after 24 hrs by propidium iodide staining-based flow cytometry (reference value: 11.7%); assay type: functional
HeLa [5] = assay: Cell cycle arrest in human HeLa cells assessed as accumulation at S phase at 40 ug/ml after 24 hrs by propidium iodide staining-based flow cytometry (reference value: 20.6%); assay type: functional
HeLa [6] = assay: Cell cycle arrest in human HeLa cells assessed as accumulation at S phase at 20 ug/ml after 24 hrs by propidium iodide staining-based flow cytometry (reference value: 20.6%); assay type: functional
HeLa [7] = assay: Cell cycle arrest in human HeLa cells assessed as accumulation at S phase at 10 ug/ml after 24 hrs by propidium iodide staining-based flow cytometry (reference value: 20.6%); assay type: functional
HeLa [8] = assay: Cell cycle arrest in human HeLa cells assessed as accumulation at G0/G1 phase at 40 ug/ml after 24 hrs by propidium iodide staining-based flow cytometry (reference value: 67.7%); assay type: functional
HeLa [9] = assay: Cell cycle arrest in human HeLa cells assessed as accumulation at G0/G1 phase at 20 ug/ml after 24 hrs by propidium iodide staining-based flow cytometry (reference value: 67.7%); assay type: functional
HeLa [10] = assay: Cell cycle arrest in human HeLa cells assessed as accumulation at G0/G1 phase at 10 ug/ml after 24 hrs by propidium iodide staining-based flow cytometry (reference value: 67.7%); assay type: functional

Q: CC(=O)N1N=C([C@H]2CC[C@H]3[C@@H]4CCC5=CC(=O)C=C[C@]5(C)[C@H]4CC[C@]23C)CC1c1ccccc1 (some centres undefined) was tested. Which LC50 (Artemia salina) did it give?
A: Its LC50 is 18.9 µg/mL (≈ 41.5 µM).

Q: And the IC50 (HeLa [1])?
A: Its IC50 is over 50 µg/mL.

Q: For CC(=O)N1N=C([C@H]2CC[C@H]3[C@@H]4CCC5=CC(=O)C=C[C@]5(C)[C@H]4CC[C@]23C)CC1c1ccccc1Cl (some centres undefined), which LC50 (Artemia salina) is on record?
A: Its LC50 is 21.7 µg/mL (≈ 44.2 µM).

Q: What about the IC50 (HeLa [1]) of the same compound?
A: Its IC50 is over 50 µg/mL.

Q: Which LC50 (Artemia salina) does the source give for CC(=O)N1N=C([C@H]2CC[C@H]3[C@@H]4CCC5=CC(=O)C=C[C@]5(C)[C@H]4CC[C@]23C)CC1c1ccc(Cl)cc1 (some centres undefined) here?
A: The LC50 was 36.6 µg/mL (≈ 74.6 µM).

Q: And the IC50 (HeLa [1])?
A: The IC50 was over 50 µg/mL.

Q: Which results are given for CC(=O)N1N=C([C@H]2CC[C@H]3[C@@H]4CCC5=CC(=O)C=C[C@]5(C)[C@H]4CC[C@]23C)CC1c1ccccc1[N+](=O)[O-] (some centres undefined)?
A: LC50 (Artemia salina): 30.2 µg/mL (≈ 60.2 µM); IC50 (HeLa [1]): > 50 µg/mL

Q: Which results are given for CC(=O)N1N=C([C@H]2CC[C@H]3[C@@H]4CCC5=CC(=O)C=C[C@]5(C)[C@H]4CC[C@]23C)CC1c1ccc([N+](=O)[O-])cc1 (some centres undefined)?
A: LC50 (Artemia salina): 38.2 µg/mL (≈ 76.1 µM); IC50 (HeLa [1]): > 50 µg/mL

Q: Which LC50 (Artemia salina) does the source give for COc1ccccc1C1CC([C@H]2CC[C@H]3[C@@H]4CCC5=CC(=O)C=C[C@]5(C)[C@H]4CC[C@]23C)=NN1C(C)=O (some centres undefined) here?
A: Its LC50 is 44.9 µg/mL (≈ 92.2 µM).

Q: What about the IC50 (HeLa [1]) of the same compound?
A: Its IC50 is over 50 µg/mL.

Q: How did the LC50 (Artemia salina) turn out when COc1ccc(C2CC([C@H]3CC[C@H]4[C@@H]5CCC6=CC(=O)C=C[C@]6(C)[C@H]5CC[C@]34C)=NN2C(C)=O)cc1 (some centres undefined) was run?
A: The LC50 was over 50 µg/mL.

Q: What about the IC50 (HeLa [1]) of the same compound?
A: The IC50 was over 50 µg/mL.

Q: How did the IC50 (HepG2) turn out when CC(=O)N1N=C([C@H]2CC[C@H]3[C@@H]4CCC5=C(Cl)C(=O)C=C[C@]5(C)[C@H]4CC[C@]23C)CC1c1ccccc1 (some centres undefined) was run?
A: Its IC50 is 17.3 µg/mL (≈ 35.2 µM).

Q: And the IC50 (NCI-H460)?
A: Its IC50 is 13.1 µg/mL (≈ 26.7 µM).

Q: What about the LC50 (Artemia salina) of the same compound?
A: Its LC50 is 4.99 µg/mL (≈ 10.2 µM).

Q: And the IC50 (HeLa [1])?
A: The IC50 was 13.7 µg/mL (≈ 27.9 µM).

Q: CC(=O)N1N=C([C@H]2CC[C@H]3[C@@H]4CCC5=C(Cl)C(=O)C=C[C@]5(C)[C@H]4CC[C@]23C)CC1c1ccc(Cl)cc1 (some centres undefined) was tested. Which IC50 (HepG2) did it give?
A: Its IC50 is 25.3 µg/mL (≈ 48.1 µM).

Q: What about the IC50 (NCI-H460) of the same compound?
A: The IC50 was 13.9 µg/mL (≈ 26.4 µM).

Q: What about the LC50 (Artemia salina) of the same compound?
A: Its LC50 is 10.4 µg/mL (≈ 19.8 µM).

Q: And the IC50 (HeLa [1])?
A: Its IC50 is 26.6 µg/mL (≈ 50.6 µM).

Q: CC(=O)N1N=C([C@H]2CC[C@H]3[C@@H]4CCC5=C(Cl)C(=O)C=C[C@]5(C)[C@H]4CC[C@]23C)CC1c1ccccc1[N+](=O)[O-] (some centres undefined) was tested. Which IC50 (HepG2) did it give?
A: The IC50 was over 50 µg/mL.

Q: And the IC50 (NCI-H460)?
A: The IC50 was 14.8 µg/mL (≈ 27.6 µM).

Q: And the LC50 (Artemia salina)?
A: Its LC50 is 7.7 µg/mL (≈ 14.4 µM).

Q: And the IC50 (HeLa [1])?
A: Its IC50 is over 50 µg/mL.

Q: For CC(=O)N1N=C([C@H]2CC[C@H]3[C@@H]4CCC5=C(Cl)C(=O)C=C[C@]5(C)[C@H]4CC[C@]23C)CC1c1ccc([N+](=O)[O-])cc1 (some centres undefined), which IC50 (HepG2) is on record?
A: The IC50 was over 50 µg/mL.

Q: And the IC50 (NCI-H460)?
A: The IC50 was over 50 µg/mL.

Q: What about the LC50 (Artemia salina) of the same compound?
A: The LC50 was 8.43 µg/mL (≈ 15.7 µM).

Q: What about the IC50 (HeLa [1]) of the same compound?
A: Its IC50 is over 50 µg/mL.

Q: For CC(=O)[C@H]1CC[C@H]2[C@@H]3CCC4=C(Cl)C(=O)C=C[C@]4(C)[C@H]3CC[C@]12C, which IC50 (HepG2) is on record?
A: Its IC50 is over 50 µg/mL.

Q: And the IC50 (NCI-H460)?
A: Its IC50 is 26.7 µg/mL (≈ 77 µM).

Q: What about the LC50 (Artemia salina) of the same compound?
A: Its LC50 is over 100 µg/mL.

Q: What about the IC50 (HeLa [1]) of the same compound?
A: The IC50 was over 50 µg/mL.

Q: What does the source list for CC(=O)N1N=C([C@H]2CC[C@H]3[C@@H]4CCC5=C(Cl)C(=O)C=C[C@]5(C)[C@H]4CC[C@]23C)CC1c1ccccc1Cl (mixture of isomers)?
A: Activity (HeLa [2]): 11.3%; Activity (HeLa [3]): 9.7%; Activity (HeLa [4]): 9.9%; Activity (HeLa [5]): 41.1%; Activity (HeLa [6]): 38.9%; Activity (HeLa [7]): 34.3%; Activity (HeLa [8]): 47.6%; Activity (HeLa [9]): 51.4%; Activity (HeLa [10]): 55.8%; IC50 (HepG2): 24.3 µg/mL; IC50 (NCI-H460): 10.3 µg/mL; LC50 (Artemia salina): 5.65 µg/mL; IC50 (HeLa [1]): 12.5 µg/mL

Q: For COc1ccccc1C1CC([C@H]2CC[C@H]3[C@@H]4CCC5=C(Cl)C(=O)C=C[C@]5(C)[C@H]4CC[C@]23C)=NN1C(C)=O (mixture of isomers), which IC50 (HepG2) is on record?
A: The IC50 was 16.2 µg/mL.

Q: And the IC50 (NCI-H460)?
A: Its IC50 is 15.7 µg/mL.

Q: What about the LC50 (Artemia salina) of the same compound?
A: Its LC50 is 9.92 µg/mL.

Q: And the IC50 (HeLa [1])?
A: The IC50 was 15.3 µg/mL.

Q: For COc1ccc(C2CC([C@H]3CC[C@H]4[C@@H]5CCC6=C(Cl)C(=O)C=C[C@]6(C)[C@H]5CC[C@]34C)=NN2C(C)=O)cc1 (mixture of isomers), which IC50 (HepG2) is on record?
A: Its IC50 is 16.9 µg/mL.

Q: And the IC50 (NCI-H460)?
A: Its IC50 is 17.9 µg/mL.

Q: And the LC50 (Artemia salina)?
A: The LC50 was 27.3 µg/mL.

Q: And the IC50 (HeLa [1])?
A: The IC50 was 19.7 µg/mL.

Q: For O=c1[nH]cc(F)c(=O)[nH]1 [FLUOROURACIL], which IC50 (NCI-H460) is on record?
A: Its IC50 is 2.48 µg/mL (≈ 19.1 µM).

Q: What about the IC50 (HeLa [1]) of the same compound?
A: Its IC50 is 0.887 µg/mL (≈ 6.82 µM).

Q: Which LC50 (Artemia salina) does the source give for CC(=O)[C@H]1CC[C@H]2[C@@H]3CCC4=CC(=O)CC[C@]4(C)[C@H]3CC[C@]12C [PROGESTERONE] here?
A: The LC50 was over 100 µg/mL.

Q: What about the IC50 (HeLa [1]) of the same compound?
A: Its IC50 is over 50 µg/mL.
